Measured values: PMC12096669, “Structural isomerisation affects the antitubercular activity of adamantyl-isoxyl adducts” (Journal of Enzyme Inhibition and Medicinal Chemistry, 2025)
In brackets after ≈: the same amount, converted by molar mass. Where two headings read alike, the source gives them in different places.

Key:
Mtb mc^28247 pMV261 = assay: microbe, parasite or virus in culture; type: cell-based
[1] = tested on: Mtb mc^27092 pMV261- ethA; assay: microbe, parasite or virus in culture; type: cell-based; conditions: Mycobacterium tuberculosis, read-out: Mtb MIC95
Mtb mc^28245 pMV261 = assay: microbe, parasite or virus in culture; type: cell-based
Mtb mc^28256 pMV261 = assay: microbe, parasite or virus in culture; type: cell-based; conditions: Mycobacterium tuberculosis, read-out: Mtb MIC95
[2] = tested on: Mtb mc^27092 pMV261-mmpL3; assay: microbe, parasite or virus in culture; type: cell-based, Mycobacterium tuberculosis; conditions: for MIC: Mycobacterium tuberculosis, read-out: Mtb MIC95
[3] = tested on: Mtb mc^27092 pMV261-desA3; assay: microbe, parasite or virus in culture; type: cell-based; conditions: Mycobacterium tuberculosis, read-out: Mtb MIC95
Mtb mc^28250 pMV261 = assay: microbe, parasite or virus in culture; type: cell-based
[4] = tested on: Mtb mc^27092 pMV261-pks13; assay: microbe, parasite or virus in culture; type: cell-based; conditions: Mycobacterium tuberculosis, read-out: Mtb MIC95
[5] = tested on: Mtb mc^27092 pMV261-hadABC; assay: microbe, parasite or virus in culture; type: cell-based; conditions: Mycobacterium tuberculosis, read-out: Mtb MIC95
[6] = tested on: M. smegmatis mc^2155 mmpL3 knockout strain expressing MmpL3-Mtb-G253E; design: method as in PMID 22344175; conditions: M. smegmatis mc^2155, MmpL3-Mtb-G253E in a mmpL3 knockout strain; cited from earlier work
[7] = Mycobacterium tuberculosis; read-out: Mtb MIC95
[8] = Mycobacterium tuberculosis, read-out: Mtb MIC95

SMILES	MIC (Mtb mc^28247 pMV261; [7]) [µg/mL]	MIC ([1]; mc^27092 pMV261- ethA, REMA) [µg/mL]	MIC (Mtb mc^28245 pMV261; [7]) [µg/mL]	MIC (Mtb mc^28256 pMV261; mc^28256 pMV261, REMA) [µg/mL]	MIC ([2]; mc^27092 pMV261-mmpL3, REMA) [µg/mL]	MIC ([3]; mc^27092 pMV261-desA3, REMA) [µg/mL]	MIC (Mtb mc^28250 pMV261; [7]) [µg/mL]	MIC ([4]; mc^27092 pMV261-pks13, REMA) [µg/mL]	MIC ([5]; mc^27092 pMV261-hadABC, REMA) [µg/mL]	increase in resistance on overexpression of MmpL3 [2] [fold]	MIC (Mtb mc^28247 pMV261; [8]) [µg/mL]	MIC [1] [µg/mL]	MIC (Mtb mc^28245 pMV261; [8]) [µg/mL]	MIC (Mtb mc^28256 pMV261) [µg/mL]	MIC [2] [µg/mL]	MIC [3] [µg/mL]	MIC (Mtb mc^28250 pMV261; [8]) [µg/mL]	MIC [4] [µg/mL]	MIC [5] [µg/mL]	increase in the resistance [6] [fold]
CC(C)CCOc1ccc(NC(=S)NC23CC4CC(CC(C4)C2)C3)cc1 [Ad-1-ISO, 1-((3s,5s,7s)-adamantan-1-yl)-3–(4-(isopentyloxy)phenyl)thiourea]	1.08 (≈ 2.9 µM)	1.2 (≈ 3.22 µM)	1.11 (≈ 2.98 µM)	1.13 (≈ 3.03 µM)	1.16 (≈ 3.11 µM)	1.07 (≈ 2.87 µM)	1.12 (≈ 3.01 µM)	1.11 (≈ 2.98 µM)	1.09 (≈ 2.93 µM)	–	–	–	–	–	–	–	–	–	–	–
CC(C)CCOc1ccc(NC(=S)Nc2ccc(OCCC(C)C)cc2)cc1 [ISO, 4,4′-diisoamyloxydiphenylthiourea]	0.34 (≈ 0.849 µM)	0.09 (≈ 0.225 µM)	0.18 (≈ 0.449 µM)	0.19 (≈ 0.474 µM)	0.21 (≈ 0.524 µM)	0.26 (≈ 0.649 µM)	0.2 (≈ 0.499 µM)	0.34 (≈ 0.849 µM)	0.71 (≈ 1.77 µM)	–	–	–	–	–	–	–	–	–	–	–
NNC(=O)c1ccncc1 [INH, isoniazid]	0.04 (≈ 0.292 µM)	0.04 (≈ 0.292 µM)	–	–	0.04 (≈ 0.292 µM)	0.04 (≈ 0.292 µM)	–	0.04 (≈ 0.292 µM)	0.04 (≈ 0.292 µM)	–	–	–	–	–	–	–	–	–	–	–
CC(C)CCOc1ccc(NC(=S)NC2C3CC4CC(C3)CC2C4)cc1 (stereo not shown) [Ad-2-ISO, 1-((1r,3r,5r,7r)-adamantan-2-yl)-3–(4-(isopentyloxy)phenyl)thiourea]	2.5 (≈ 6.71 µM)	2.63 (≈ 7.06 µM)	3.55 (≈ 9.53 µM)	2.9 (≈ 7.78 µM)	4.2 (≈ 11.3 µM)	2.93 (≈ 7.86 µM)	3.1 (≈ 8.32 µM)	3.37 (≈ 9.05 µM)	4.34 (≈ 11.6 µM)	~2	–	–	–	–	–	–	–	–	–	–
CCc1cc(C(N)=S)ccn1 [ETH, ethionamide]	–	–	–	–	–	–	–	–	–	–	0.98 (≈ 5.89 µM)	0.65 (≈ 3.91 µM)	0.98 (≈ 5.89 µM)	1.08 (≈ 6.5 µM)	0.99 (≈ 5.95 µM)	1.02 (≈ 6.14 µM)	1.02 (≈ 6.14 µM)	1.01 (≈ 6.08 µM)	2.02 (≈ 12.2 µM)	–
CC(C)=CCC/C(C)=C/CNCCNC1C2CC3CC(C2)CC1C3 (stereo not shown) [SQ109, N-Adamantan-2-yl-N’-((E)-3,7-dimethylocta-2,6-dienyl)ethane-1,2-diamine]	0.3 (≈ 0.908 µM)	–	0.31 (≈ 0.938 µM)	0.27 (≈ 0.817 µM)	0.74 (≈ 2.24 µM)	–	0.3 (≈ 0.908 µM)	0.31 (≈ 0.938 µM)	0.31 (≈ 0.938 µM)	–	–	–	–	–	–	–	–	–	–	–
CC[C@@H](CO)NCCN[C@@H](CC)CO [EMB, Ethambutol]	1.97 (≈ 9.64 µM)	2.09 (≈ 10.2 µM)	1.82 (≈ 8.91 µM)	1.88 (≈ 9.2 µM)	2.02 (≈ 9.89 µM)	2.95 (≈ 14.4 µM)	1.89 (≈ 9.25 µM)	2 (≈ 9.79 µM)	2.54 (≈ 12.4 µM)	–	–	–	–	–	–	–	–	–	–	–
O=C(Nc1ccc(F)c(F)c1F)NC1C2CC3CC(C2)CC1C3 (stereo not shown) [AU1235]	–	–	–	–	–	–	–	–	–	–	–	–	–	–	–	–	–	–	–	2
CO[C@H]1/C=C/O[C@@]2(C)Oc3c(C)c(O)c4c(O)c(c(/C=N/N5CCN(C)CC5)c(O)c4c3C2=O)NC(=O)/C(C)=C\C=C\[C@H](C)[C@H](O)[C@@H](C)[C@@H](O)[C@@H](C)[C@H](OC(C)=O)[C@@H]1C [RIF, rifampicin]	–	0.06 (≈ 0.0729 µM)	0.05 (≈ 0.0608 µM)	–	0.06 (≈ 0.0729 µM)	0.06 (≈ 0.0729 µM)	–	0.06 (≈ 0.0729 µM)	0.06 (≈ 0.0729 µM)	–	–	–	–	–	–	–	–	–	–	–
CC(=O)NC[C@H]1CN(c2ccc(N3CCOCC3)c(F)c2)C(=O)O1 [LZD, linezolid]	0.88 (≈ 2.61 µM)	–	0.9 (≈ 2.67 µM)	0.66 (≈ 1.96 µM)	0.86 (≈ 2.55 µM)	–	0.77 (≈ 2.28 µM)	0.93 (≈ 2.76 µM)	0.72 (≈ 2.13 µM)	–	–	–	–	–	–	–	–	–	–	–
